Data from US20220135590A1, “ISOXAZOLE COMPOUNDS FOR THE TREATMENT OF DISEASES ASSOCIATED WITH HBV INFECTIONS” (Janssen Science Ireland Unlimited Company, priority 2017, published 2022).

Each molecule was assayed on HBV (assay: HBV replication inhibition assay (BDNA assay) in HepG2.2.15 cells). Settings: Hepatitis B virus, 144 h, 6 days incubation, encapsidated HBV DNA in supernatant by branched DNA QuantiGene assay.
Format: cell-based
Method: HBV Replication Inhibition Assay
HBV replication inhibition by the disclosed compounds were determined in cells infected or transfected with HBV or cells with stably integrated HBV, such as HepG2.2.15 cells (Sells et al. 1987). In this example, HepG2.2.15 cells were maintained in cell culture medium containing 10% fetal bovine serum (FBS), Geneticin, L-glutamine, penicillin and streptomycin. HepG2.2.15 cells were seeded in 96-well plates at a density of 40,000 cells/well and were treated with serially diluted compounds at a final DMSO concentration of 0.5% either alone or in combination by adding drugs in a checker box format. Cells were incubated with compounds for three days, after which medium was removed and fresh medium containing compounds was added to cells and incubated for another three days. At day 6, supernatant was removed and treated with DNase at 37° C. for 60 minutes, followed by enzyme inactivation at 75° C. for 15 minutes. Encapsidated HBV DNA was released from the virions and covalently linked HBV polymerase by incubating in lysis buffer (Affymetrix QS0010) containing 2.5 μg proteinase K at 50° C. for 40 minutes. HBV DNA was denatured by addition of 0.2 M NaOH and detected using a branched DNA (BDNA) QuantiGene assay kit according to manufacturer recommendation (Affymetrix). HBV DNA levels were also quantified using qPCR, based on amplification of encapsidated HBV DNA extraction with QuickExtraction Solution (Epicentre Biotechnologies) and amplification of HBV DNA using HBV specific PCR probes that can hybridize to HBV DNA and a fluorescently labeled probe for quantitation. In addition, cell viability of HepG2.2.15 cells incubated with test compounds alone or in combination was determined by using CellTitre-Glo reagent according to the manufacturer protocol (Promega). The mean background signal from wells containing only culture medium was subtracted from all other samples, and percent inhibition at each compound concentration was calculated by normalizing to signals from HepG2.2.15 cells treated with 0.5% DMSO using equation E1.
% inhibition (DMSOave−Xi)DMSOave×100% E1:
where DMSOave is the mean signal calculated from the wells that were treated with DMSO control (0% inhibition control) and X^1 is the signal measured from the individual wells. EC50 values, effective concentrations that achieved 50% inhibitory effect, were determined by non-linear fitting using Graphpad Prism software (San Diego, Calif.) and equation E2.
Y=Ymin+(Ymax−Ymin)/(1+10(Log EC50−X)×HillSlope) E2:
where Y represents percent inhibition values and X represents the logarithm of compound concentrations.
Selected disclosed compounds were assayed in the HBV replication assay (BDNA assay), as described above, and a representative group of these active compounds is shown in Table 3. […] In Table 3, “A” represents 1 nM<EC50≤100 nM; “B” represents 100 nM<EC50≤1,000 nM; and “C” represents 1,000 nM<EC50≤10,000 nM.

Compound	EC50
C[C@H]1Cc2noc(-c3ncccn3)c2CN1C(=O)Nc1ccc(F)c(C#N)c1 [Example 1, (S)—N-(3-Cyano-4-fluorophenyl)-6-methyl-3-(pyrimidin-2-yl)-6,7-dihydroisoxazolo[4,3-c]pyridine-5(4H)-carboxamide]	1 to 100 nM
C[C@H]1Cc2noc(-c3ncccn3)c2CN1C(=O)Nc1ccnc(C(F)F)c1F [Example 2, (S)—N-(2-(Difluoromethyl)-3-fluoropyridin-4-yl)-6-methyl-3-(pyrimidin-2-yl)-6,7-dihydroisoxazolo[4,3-c]pyridine-5(4H)-carboxamide]	1 to 100 nM
C[C@H]1Cc2noc(-c3ncccn3)c2CN1C(=O)Nc1ccc(F)c(C(F)(F)F)c1 [Example 3, (S)—N-(4-Fluoro-3-(trifluoromethyl)phenyl)-6-methyl-3-(pyrimidin-2-yl)-6,7-dihydroisoxazolo[4,3-c]pyridine-5(4H)-carboxamide]	1 to 100 nM
C[C@H]1Cc2noc(-c3ncccn3)c2CN1C(=O)Nc1ccnc(Br)c1F [Example 4, (S)—N-(2-Bromo-3-fluoropyridin-4-yl)-6-methyl-3-(pyrimidin-2-yl)-6,7-dihydroisoxazolo[4,3-c]pyridine-5(4H)-carboxamide]	1 to 100 nM
C[C@H]1Cc2onc(-c3ncccn3)c2CN1C(=O)Nc1ccc(F)c(C#N)c1 [Example 5, (S)—N-(3-Cyano-4-fluorophenyl)-6-methyl-3-(pyrimidin-2-yl)-6,7-dihydroisoxazolo[4,5-c]pyridine-5(4H)-carboxamide]	1 to 100 nM
C[C@H]1Cc2onc(-c3ncccn3)c2CN1C(=O)Nc1ccnc(C(F)F)c1F [Example 6, (S)—N-(2-(Difluoromethyl)-3-fluoropyridin-4-yl)-6-methyl-3-(pyrimidin-2-yl)-6,7-dihydroisoxazolo[4,5-c]pyridine-5(4H)-carboxamide]	1 to 100 nM
C[C@H]1Cc2onc(-c3ncccn3)c2CN1C(=O)Nc1ccc(F)c(C(F)(F)F)c1 [Example 7, (S)—N-(4-Fluoro-3-(trifluoromethyl)phenyl)-6-methyl-3-(pyrimidin-2-yl)-6,7-dihydroisoxazolo[4,5-c]pyridine-5(4H)-carboxamide]	100 to 1000 nM
C[C@H]1Cc2onc(-c3ncccn3)c2CN1C(=O)Nc1ccnc(Br)c1F [Example 8, (S)—N-(2-Bromo-3-fluoropyridin-4-yl)-6-methyl-3-(pyrimidin-2-yl)-6,7-dihydroisoxazolo[4,5-c]pyridine-5(4H)-carboxamide]	100 to 1000 nM
CC1(C)CN(C(=O)Nc2ccc(F)c(C#N)c2)Cc2c1noc2-c1ncccn1 [Example 9, N-(3-Cyano-4-fluorophenyl)-7,7-dimethyl-3-(pyrimidin-2-yl)-6,7-dihydroisoxazolo[4,3-c]pyridine-5(4H)-carboxamide]	1 to 100 nM
CC1(C)CN(C(=O)Nc2ccc(F)c(C(F)(F)F)c2)Cc2c1noc2-c1ncccn1 [Example 10, N-(4-Fluoro-3-(trifluoromethyl)phenyl)-7,7-dimethyl-3-(pyrimidin-2-yl)-6,7-dihydroisoxazolo[4,3-c]pyridine-5(4H)-carboxamide]	100 to 1000 nM
CC1(C)CN(C(=O)Nc2ccnc(C(F)F)c2F)Cc2c1noc2-c1ncccn1 [Example 11, N-(2-(Difluoromethyl)-3-fluoropyridin-4-yl)-7,7-dimethyl-3-(pyrimidin-2-yl)-6,7-dihydroisoxazolo[4,3-c]pyridine-5(4H)-carboxamide]	100 to 1000 nM
CC1(C)CN(C(=O)Nc2ccnc(Br)c2F)Cc2c1noc2-c1ncccn1 [Example 12, N-(2-Bromo-3-fluoropyridin-4-yl)-7,7-dimethyl-3-(pyrimidin-2-yl)-6,7-dihydroisoxazolo[4,3-c]pyridine-5(4H)-carboxamide]	1 to 100 nM
CC1(C)CN(C(=O)Nc2ccc(F)c(C#N)c2)Cc2c(-c3ncccn3)noc21 [Example 13, N-(3-Cyano-4-fluorophenyl)-7,7-dimethyl-3-(pyrimidin-2-yl)-6,7-dihydroisoxazolo[4,5-c]pyridine-5(4H)-carboxamide]	100 to 1000 nM
CC1(C)CN(C(=O)Nc2ccc(F)c(C(F)(F)F)c2)Cc2c(-c3ncccn3)noc21 [Example 14, N-(4-Fluoro-3-(trifluoromethyl)phenyl)-7,7-dimethyl-3-(pyrimidin-2-yl)-6,7-dihydroisoxazolo[4,5-c]pyridine-5(4H)-carboxamide]	1000 to 10000 nM
CC1(C)CN(C(=O)Nc2ccnc(C(F)F)c2F)Cc2c(-c3ncccn3)noc21 [Example 15, N-(2-(Difluoromethyl)-3-fluoropyridin-4-yl)-7,7-dimethyl-3-(pyrimidin-2-yl)-6,7-dihydroisoxazolo[4,5-c]pyridine-5(4H)-carboxamide]	100 to 1000 nM
CC1(C)CN(C(=O)Nc2ccnc(Br)c2F)Cc2c(-c3ncccn3)noc21 [Example 16, N-(2-Bromo-3-fluoropyridin-4-yl)-7,7-dimethyl-3-(pyrimidin-2-yl)-6,7-dihydroisoxazolo[4,5-c]pyridine-5(4H)-carboxamide]	1 to 100 nM
